“And” between values parts separate entries of the source, which are not always exact repeats. Identical values can stand only once.
Tests used:
Human recombinant MMP1 = molecular target: T1, Human recombinant MMP1 (Homo sapiens, UniProt P03956); experiment: MMP1 (Collagenase-1) inhibition, 14C collagen release; assay type: biochemical; conditions: 35° C., 5 hours; read-out: MMP-1 inhibitory activity, IC50
T1 sequence (P03956 100-469): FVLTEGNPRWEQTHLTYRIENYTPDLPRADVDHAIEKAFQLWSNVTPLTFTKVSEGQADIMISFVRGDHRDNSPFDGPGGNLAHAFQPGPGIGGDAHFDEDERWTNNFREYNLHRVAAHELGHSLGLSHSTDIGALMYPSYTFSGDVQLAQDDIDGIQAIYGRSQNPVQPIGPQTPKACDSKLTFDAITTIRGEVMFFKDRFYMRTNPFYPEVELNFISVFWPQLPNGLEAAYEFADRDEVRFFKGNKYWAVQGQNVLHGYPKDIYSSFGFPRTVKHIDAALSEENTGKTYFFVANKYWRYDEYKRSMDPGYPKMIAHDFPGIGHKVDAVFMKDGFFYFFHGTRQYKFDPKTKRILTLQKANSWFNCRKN

Human recombinant MMP9 = Human recombinant MMP9 (Homo sapiens, UniProt P14780); experiment: MMP9 (Gelatinase B) inhibition, 14C gelatin release; assay type: biochemical; conditions: 37° C., 16 hours; read-out: MMP-9 inhibitory activity, IC50
Human recombinant MMP9, sequence (P14780 94-707): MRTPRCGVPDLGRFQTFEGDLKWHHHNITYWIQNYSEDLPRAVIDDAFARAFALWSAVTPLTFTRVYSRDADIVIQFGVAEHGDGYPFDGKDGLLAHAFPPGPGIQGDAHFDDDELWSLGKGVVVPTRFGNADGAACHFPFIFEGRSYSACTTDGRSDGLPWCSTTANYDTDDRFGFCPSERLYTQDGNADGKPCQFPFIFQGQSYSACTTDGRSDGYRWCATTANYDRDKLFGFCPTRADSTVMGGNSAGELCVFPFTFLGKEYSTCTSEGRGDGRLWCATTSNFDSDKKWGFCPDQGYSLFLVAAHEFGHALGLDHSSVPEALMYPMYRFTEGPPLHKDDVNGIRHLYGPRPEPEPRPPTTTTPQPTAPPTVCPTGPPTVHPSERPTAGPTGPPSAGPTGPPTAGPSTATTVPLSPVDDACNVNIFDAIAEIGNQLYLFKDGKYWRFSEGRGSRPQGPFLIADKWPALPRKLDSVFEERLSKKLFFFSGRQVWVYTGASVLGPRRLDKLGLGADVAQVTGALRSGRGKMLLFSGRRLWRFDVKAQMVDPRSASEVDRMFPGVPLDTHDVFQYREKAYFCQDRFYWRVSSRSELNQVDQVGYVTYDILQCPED

[1] = test system: MDA-MB-231 human breast cancer cells; experiment: Membrane Invasion Culture System (MICS) chemo-invasion assay; assay type: cell-based; conditions: 24 hours, + = increased invasiveness
From the text: (§1) Another objective was to analyze the effects of specific, tetracycline derived compounds on the in-vitro chemo-invasive potential of: • C8161 human melanoma cells • MDA-MB-231 human breast cancer cells • PC3 human prostate cancer cells • RPM18226 human myeloma cancer cells • Ark human myeloma cancer cells • Arp-1 human myeloma cancer cells
(§2) The Membrane Invasion Culture System (MICS) in vitro chemo-invasion assay was chosen to measure changes in the invasive potential of specific human cancer cells in response to tetracycline derived compounds. Stock solutions of each compound were hydrated in water containing 2% DMSO and pH 10.0. Upon solubilization, HCl was added to the solution to establish a pH of 7.5–8.0. This solution was then wrapped in foil and kept at 4° C. during the 24 hours of assay. Fresh compound was prepared for each assay. The in vitro chemoinvasion analyses for tumor cell invasiveness are performed using the Membrane Invasion Culture System (MICS) as previously described.
(§3) The MICS system is a thermally treated plastic manifold system consisting of two matched sets of plates containing fourteen wells, 13 mm in diameter. Interposed between these plates was a polycarbonate filter containing 10 μm pores and coated with a defined matrix composed of human laminin/collagen IV/gelatin that formed a 35 μm thick barrier between the top and bottom sections of the wells in MICS. Prior to placing this barrier in place, the lower wells were filled with serum-free RPMI culture medium made 50% in conditioned medium obtained from 2-day-old cultures of human fibroblasts which had been cleared of cells and cellular debris by either centrifugation, or filtering through a 0.45 μm sterile filter. The barrier was then placed on the lower wells and fresh serum-free medium added to the upper wells after assembly of the system. Fifty thousand tumor cells were then added to the wells either in the presence of the compound, or the DMSO vehicle (the controls). Of the 12 assay wells on each manifold, 3 randomized wells acted as controls, 3 wells received 1 μg/ml of compound, 3 received 10 μg/ml and 3 received 25 μg/ml. After 24 hours, cells and media were removed from the lower wells and replaced by phosphate buffered saline plus 2 mM EDTA. This solution was used to remove all cells from the lower well, and this wash was added to the recovered cells plus medium from the same well. These samples were then collected onto a polylysine containing polycarbonate membrane containing 3 μm pores using a Dot-Blot manifold system. These collection filters were then fixed in methanol, and stained using Wright's stain (Leukostat staining kit) in situ. The filters were then mounted on microscope slides with microscope immersion oil (which reduced the light refraction from the pores) and 5 microscopic fields were counted to calculate the number of cells which invaded through the membrane over the 24 hour period. These numbers were then statistically analyzed as discussed below.

[2] = test system: RPMI-8226 human myeloma cancer cells; experiment: as above; assay type: cell-based; conditions: 24 hours, + = increased invasiveness
From the text: as §1, §2, §3

[3] = test system: PC-3 ML human prostate cancer cells; experiment: as above; assay type: cell-based; conditions: 24 hours, + = increased invasiveness
From the text: as §1, §2, §3

MMP2 (Gelatinase A) = molecular target: T2, MMP2 (Gelatinase A) (Homo sapiens, UniProt P08253); experiment: MMP2 (Gelatinase A) inhibition, 14C gelatin release; assay type: biochemical; conditions: 37° C., 16 hours; read-out: MMP-2 inhibitory activity, IC50
T2 sequence (P08253 110-660): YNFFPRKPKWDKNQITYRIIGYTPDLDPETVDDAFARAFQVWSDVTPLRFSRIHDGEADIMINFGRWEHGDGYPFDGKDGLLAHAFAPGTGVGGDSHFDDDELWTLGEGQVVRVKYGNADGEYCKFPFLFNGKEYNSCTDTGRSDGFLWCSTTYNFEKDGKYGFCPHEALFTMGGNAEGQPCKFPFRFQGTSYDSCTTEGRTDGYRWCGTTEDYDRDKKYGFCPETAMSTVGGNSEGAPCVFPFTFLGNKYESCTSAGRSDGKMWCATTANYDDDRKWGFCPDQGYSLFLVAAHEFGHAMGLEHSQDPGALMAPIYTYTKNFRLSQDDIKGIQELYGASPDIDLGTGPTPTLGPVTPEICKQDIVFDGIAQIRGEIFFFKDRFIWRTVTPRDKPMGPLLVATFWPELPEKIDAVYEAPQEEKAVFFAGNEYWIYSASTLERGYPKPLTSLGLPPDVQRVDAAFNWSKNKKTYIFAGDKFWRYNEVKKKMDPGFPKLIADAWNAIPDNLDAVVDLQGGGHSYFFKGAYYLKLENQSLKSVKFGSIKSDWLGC

Human recombinant MMP3 = Human recombinant MMP3 (Homo sapiens, UniProt P08254); experiment: MMP3 (Stromelysin 1) inhibition, 14C casein release; assay type: biochemical; conditions: 37° C., 16 hours; read-out: MMP-3 inhibitory activity, IC50
Human recombinant MMP3, sequence (P08254 100-477): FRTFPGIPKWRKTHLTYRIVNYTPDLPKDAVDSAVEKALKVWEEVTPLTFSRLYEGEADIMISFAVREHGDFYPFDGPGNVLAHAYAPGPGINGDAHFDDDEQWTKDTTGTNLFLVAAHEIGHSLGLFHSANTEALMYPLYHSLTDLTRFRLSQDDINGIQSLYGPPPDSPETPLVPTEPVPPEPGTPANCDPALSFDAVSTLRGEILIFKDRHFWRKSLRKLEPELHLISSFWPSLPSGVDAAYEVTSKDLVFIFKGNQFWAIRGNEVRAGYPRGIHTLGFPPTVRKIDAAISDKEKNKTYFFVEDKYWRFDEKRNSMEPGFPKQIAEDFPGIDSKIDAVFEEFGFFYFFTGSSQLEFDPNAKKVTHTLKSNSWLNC

Human recombinant MMP14 = Human recombinant MMP14 (Homo sapiens, UniProt P50281); experiment: MMP14 (MTI-MMP) inhibition, 14C collagen release; assay type: biochemical; conditions: 35° C., 15 hours; read-out: MMP-14 inhibitory activity, IC50
Procedure: Protocol for Measuring MMP14 (MTI-MMP) Inhibition by Tetracycline Derivatives
MMP14 activity was determined by the release of soluble ^14C labelled collagen fragments from ^14C acetylated rat skin type I collagen (Methods in Enzymology 80 711, 1981).
• 100 μg ^14C labelled collagen (5–6000 dpm) • 50 mM Tris HCL pH 7.9 • 15 mM CaCl2 0.02% azide • Human recombinant MMP14 50–100 nM • ±Tetracycline (up to 1 mM) in a total volume of 300 μl.
Incubations were at 35° C. for 15 hours. Uncleaved collagen fibrils (which form within the first 10 minutes) were removed by centrifugation at 10,000 g 4° C. 10 minutes 200 μl supernatant were counted in Packard Opti Phase Supermix scintillation fluid using a scintillation counter. Only data derived from within the linear part of the assay (10–70% lysis of the collagen) were utilized. Based on percentage inhibition of the activity of MMP1 alone by a range of concentrations of each sample, the IC50 value for each tetracycline was calculated.

[4] = test system: C8161 human melanoma cells; experiment: Membrane Invasion Culture System (MICS) chemo-invasion assay; assay type: cell-based; conditions: 24 hours, + = increased invasiveness
From the text: as §1, §2, §3

Structure (SMILES)	IC50 (Human recombinant MMP1) [µM]	IC50 (Human recombinant MMP9) [µM]	percent inhibition, MDA-MB-231 (Breast) ([1]; 25 ug/mL)	percent inhibition, RPMI-8226 (Multiple Myeloma) ([2]; 1 ug/mL)	percent inhibition, RPMI-8226 (Multiple Myeloma) ([2]; 10 ug/mL)	percent inhibition, PC-3 ML (Prostrate) ([3]; 1 ug/mL)	percent inhibition, PC-3 ML (Prostrate) ([3]; 10 ug/mL)	percent inhibition, PC-3 ML (Prostrate) ([3]; 25 ug/mL)	IC50 (MMP2 (Gelatinase A)) [µM]	IC50 (Human recombinant MMP3) [µM]	IC50 (Human recombinant MMP14) [µM]	percent inhibition, RPMI-8226 (Multiple Myeloma) ([2]; 25 ug/mL)	percent inhibition, C8161 (Melanoma) ([4]; 1 ug/mL)	percent inhibition, C8161 (Melanoma) ([4]; 10 ug/mL) [%]	percent inhibition, C8161 (Melanoma) ([4]; 25 ug/mL)	percent inhibition, MDA-MB-231 (Breast) ([1]; 1 ug/mL)	percent inhibition, MDA-MB-231 (Breast) ([1]; 10 ug/mL)
CC(C)CN(C)c1ccc(O)c2c1C(C)C1C(=C(O)C3(O)C(=O)C(C(N)=O)=C(O)C(N(C)C)C3C1O)C2=O (stereo not shown) [Compound 27, 7-Isobutylmethylamino-6-deoxy-5-hydroxytetracycline H2SO4]	498	101	72^B percent and 48^B percent	24^B percent and 20%	6% and 9%	17^B percent and 9%	35^B percent and 56^B percent	70%	963	149	92	–	–	–	–	–	–
CC(=O)OC1C2C(=C(O)C3(O)C(=O)C(C(N)=O)=C(O)C(N(C)C)C13)C(=O)c1c(O)cccc1C2C (stereo not shown) [Compound 28, 6-Deoxy-5-acetoxy-tetracycline H2SO4]	> 1000	125	54^B percent and 45^B percent	4% and 5%	–	–	–	80% and 61%	> 1000	231	49	34^B percent and 62^B percent	–	–	–	–	–
CC(=O)N(CC(C)C)c1ccc(O)c2c1C(C)C1C(=C(O)C3(O)C(=O)C(C(N)=O)=C(O)C(N(C)C)C3C1O)C2=O.O=S(=O)(O)O (stereo not shown) [Compound 29, 7-Acetylisobutylamino-6-deoxy-5-hydroxytetracycline H2SO4]	895	172	–	–	12% and 13%	–	–	58% and 69%	983	213	98	–	–	–	–	–	–
CC1c2ccc([N+]#N)c(O)c2C(=O)C2=C(O)C3(O)C(=O)C(C(N)=O)=C(O)CC3C(O)C21.O=S(=O)([O-])O (stereo not shown) [Compound 37, 4-Dedimethylamino-6-deoxy-5-hydroxytetracycline-9-diazonium sulfate]	279	445	46^B percent	10%	5%	11%	26%	36%	> 1000	274	41	46^B percent	+1%	20	69^B percent	+6%	1%
CC1c2c([N+](=O)[O-])cc(C(C)(C)C)c(O)c2C(=O)C2=C(O)C3(O)C(=O)C(C(N)=O)=C(O)C(N(C)C)C3C(O)C21 (stereo not shown) [Compound 38, 7-nitro-9-tertbutyl-6-deoxy-5-hydroxytetracycline H2SO4]	230	215	70^B percent and 37%	–	–	37^B percent and 38^B percent	41^B percent and 27^B percent	41% and 52%	175	95	69	–	–	–	66^B percent and 39%	–	–
CC1c2ccc(C(C)(C)C)c(O)c2C(=O)C2=C(O)C3(O)C(=O)C(C(N)=O)=C(O)C(N(C)C)C3C(O)C21 (stereo not shown) [Compound 39, 9-tertbutyl-6-deoxy-5-hydroxytetracycline H2SO4]	860	114	76^B percent	5%	10%	44^B percent	67^B percent	69^B percent	186	682	83	46^B percent	10%	11	24%	18^B percent	29^B percent
CN(C)c1ccc(O)c2c1CC1CC3CC(O)=C(C(N)=O)C(=O)C3(O)C(O)=C1C2=O (stereo not shown) [Compound 41, 4-Dedimethylamino-7-dimethylamino-6-demethyl-6-deoxy-tetracycline H2SO4]	478	250	2%	7%	+6%	+4%	4%	4%	889	54	403	14%	2%	8	6%	+8%	3%

— patent publication US7214669B2, “Tetracycline derivatives and methods of use thereof” (Tetragenex Pharmaceuticals, Inc., priority 2001, dated 2007)
